Columns and labels:
[1] = test system: ABUTH (Abutilon theophrasti); assay: Postemergence herbicidal evaluation; format: in vivo, Medic.; conditions: postemergence
Method: (§1) In the tests, seedling plants are grown in jiffy flats for about two weeks. […] After spraying, the plants are placed on greenhouse benches and are cared for in accordance with conventional greenhouse procedures. From four to five weeks after treatment, the seedling plants are examined and rated according to the rating system set forth below. Where more than one test is involved for a given compound, the data are averaged.
(§2) Results of herbicide evaluation are expressed on a rating scale (0-9). The scale is based upon a visual observation of plant stand, vigor, malformation, size, chlorosis and overall plant appearance as compared with a control.

[2] = test system: AMBEL (Ambrosia artemisifolia); assay: Postemergence herbicidal evaluation; format: in vivo, L.; conditions: postemergence
Method: as §1, §2

[3] = test system: CASOB (Cassia obtusifolia); assay: Postemergence herbicidal evaluation; format: in vivo, L.; conditions: postemergence
Method: as §1, §2

[4] = test system: CHEAL (Chenopodium album); assay: Postemergence herbicidal evaluation; format: in vivo, L.; conditions: postemergence
Method: as §1, §2

[5] = test system: GALAP (Galium aparine); assay: Postemergence herbicidal evaluation; format: in vivo; conditions: postemergence
Method: as §1, §2

[6] = test system: IPOHE (Ipomoea hederacea); assay: Postemergence herbicidal evaluation; format: in vivo, (L.) Jacq.; conditions: postemergence
Method: as §1, §2

[7] = test system: ECHCG (Echinochloa crus-galli); assay: Postemergence herbicidal evaluation; format: in vivo, (L.) Beau; conditions: postemergence
Method: as §1, §2

[8] = test system: SETVI (Setaria viridis); assay: Postemergence herbicidal evaluation; format: in vivo, (L.) Beau; conditions: postemergence
Method: In the tests, seedling plants are grown in jiffy flats for about two weeks. The test compounds are dispersed in 50/50 acetone/water mixtures containing 0.5% TWEEN® 20, a polyoxyethylene sorbitan monolaurate surfactant of Atlas Chemical Industries, in sufficient quantities to provide the equivalent of about 0.0040 kg to 1.000 kg per hectare of active compound when applied to the plants through a spray nozzle operating at 40 psi for a predetermined time. After spraying, the plants are placed on greenhouse benches and are cared for in accordance with conventional greenhouse procedures. From four to five weeks after treatment, the seedling plants are examined and rated according to the rating system set forth below. Where more than one test is involved for a given compound, the data are averaged.
as §2

[9] = test system: GLXMAW (Soybean, Williams); assay: Postemergence herbicidal evaluation; format: in vivo, Glycine max, (L.) Merr. cv Williams; conditions: postemergence
Method: as §1, §2

[10] = test system: ORYSAT (Rice, Tebonnet); assay: Postemergence herbicidal evaluation; format: in vivo, Oryza sativa, (L.) Tebonnet; conditions: postemergence
Method: as §1, §2

[11] = test system: TRZAWR (Wheat, Winter, cv Riband); assay: Postemergence herbicidal evaluation; format: in vivo, Triticum aestivum; conditions: postemergence
Method: as §1, §2

[12] = test system: ZEAMX (Corn, Field); assay: Postemergence herbicidal evaluation; format: in vivo, Zea mays, L.; conditions: postemergence
Method: as §1, §2

[13] = test system: ABUTH (Abutilon theophrasti); assay: Preemergence herbicidal evaluation; format: in vivo, Medic.; conditions: Rate 0.0620 kg/ha; rated 4-5 weeks after treatment
Text: as §2
(§3) The preemergence herbicidal activity of the test compounds of the present invention is exemplified by the following tests in which the seeds of a variety of monocotyledonous and dicotyledonous plants are separately mixed with potting soil and planted on top of approximately one inch of soil in separate pint cups. […] The treated cups are then placed on greenhouse benches, watered and cared for in accordance with conventional greenhouse procedures. From four to five weeks after treatment, the tests are terminated and each cup is examined and rated according to the rating system provided in Example 87. The plant species used and the compounds evaluated are the same as those shown in Example 87.

[14] = test system: AMBEL (Ambrosia artemisifolia); assay: Preemergence herbicidal evaluation; format: in vivo, L.; conditions: Rate 0.0620 kg/ha; rated 4-5 weeks after treatment
Text: as §2, §3

[15] = test system: CASOB (Cassia obtusifolia); assay: Preemergence herbicidal evaluation; format: in vivo, L.; conditions: Rate 0.0620 kg/ha; rated 4-5 weeks after treatment
Text: as §2, §3

[16] = test system: CHEAL (Chenopodium album); assay: Preemergence herbicidal evaluation; format: in vivo, L.; conditions: Rate 0.0620 kg/ha; rated 4-5 weeks after treatment
Text: as §2, §3

[17] = test system: GALAP (Galium aparine); assay: Preemergence herbicidal evaluation; format: in vivo; conditions: Rate 0.0620 kg/ha; rated 4-5 weeks after treatment
Text: as §2, §3

[18] = test system: IPOHE (Ipomoea hederacea); assay: Preemergence herbicidal evaluation; format: in vivo, (L.) Jacq.; conditions: Rate 0.0620 kg/ha; rated 4-5 weeks after treatment
Text: as §2, §3

[19] = test system: ECHCG (Echinochloa crus-galli); assay: Preemergence herbicidal evaluation; format: in vivo, (L.) Beau; conditions: Rate 0.0620 kg/ha; rated 4-5 weeks after treatment
Text: as §2, §3

[20] = test system: SETVI (Setaria viridis); assay: Preemergence herbicidal evaluation; format: in vivo, (L.) Beau; conditions: Rate 0.0620 kg/ha; rated 4-5 weeks after treatment
Text: as §2, §3

[21] = test system: GLXMAW (Soybean, Williams); assay: Preemergence herbicidal evaluation; format: in vivo, Glycine max, (L.) Merr. cv Williams; conditions: Rate 0.0620 kg/ha; rated 4-5 weeks after treatment
Text: as §2, §3

[22] = test system: ORYSAT (Rice, Tebonnet); assay: Preemergence herbicidal evaluation; format: in vivo, Oryza sativa, (L.) Tebonnet; conditions: Rate 0.0620 kg/ha; rated 4-5 weeks after treatment
Text: as §2, §3

[23] = test system: TRZAWR (Wheat, Winter, cv Riband); assay: Preemergence herbicidal evaluation; format: in vivo, Triticum aestivum; conditions: Rate 0.0620 kg/ha; rated 4-5 weeks after treatment
Text: as §2, §3

[24] = test system: ZEAMX (Corn, Field); assay: Preemergence herbicidal evaluation; format: in vivo, Zea mays, L.; conditions: Rate 0.0620 kg/ha; rated 4-5 weeks after treatment
Text: as §2, §3

[25] = test system: ECHORC (Echinochloa oryzoides); assay: Flooded paddy, preemergence weed control; format: in vivo, Echinochloa oryzoides (Ard.) Fritsch.; conditions: rated 3-4 weeks after treatment, 0-9 rating scale
Method: as §2
(§4) Preemergence herbicidal activity under flooded paddy conditions is determined as follows: plant seeds or propagating organs are planted in the top 0.5 cm of silt loam soil in 32 oz. plastic containers with a diameter of 10.5 cm and no drainage holes. Water is added to these containers and maintained at 1.5 to 3 cm above the soil surface for the duration of the experiment. […] The treated containers are placed on greenhouse benches and cared for in accordance with conventional greenhouse procedures.

[26] = test system: CYPIR (Cyperus iria); assay: Flooded paddy, preemergence weed control; format: in vivo; conditions: rated 3-4 weeks after treatment, 0-9 rating scale
Method: as §2, §4

[27] = test system: MOOVA (Monochoria vaginalis); assay: Flooded paddy, preemergence weed control; format: in vivo, Presl.; conditions: rated 3-4 weeks after treatment, 0-9 rating scale
Method: as §2, §4

[28] = test system: SAGPY (Sagittaria pygmaea); assay: Flooded paddy, preemergence weed control; format: in vivo, L.; conditions: rated 3-4 weeks after treatment, 0-9 rating scale
Method: as §2, §4

[29] = test system: ORYSAT (Rice, Tebonnet); assay: Flooded paddy, post-transplant rice tolerance; format: in vivo, Oryza sativa, (L.) Tebonnet; conditions: flooded paddy, post-transplant rice, rated 3-4 weeks after treatment, 0-9 rating scale
Method: as §2
The tolerance of transplanted rice to post-transplanted herbicide application is determined as follows: two ten-day-old rice seedlings (cv. Tebonnet) are transplanted into silt loam soil in 32 oz. plastic containers with a diameter of 10.5 cm and no drainage holes. After transplanting, the containers are flooded and the water level is maintained at 1.5 to 3 cm above the soil surface. […] The treated containers are placed on greenhouse benches, watered such that the water level is maintained as stated above, and cared for in accordance with conventional greenhouse procedures.

## C[C@@H]1OC(c2nsc3cc(F)c(-n4c(=O)cc(C(F)(F)F)n(C)c4=O)cc23)O[C@@H]1C (stereo partly drawn) [Compound 63, 3-[3-[(4R,5S)-4,5-dimethyl-1,3-dioxolan-2-yl]-6-fluoro-1,2-benzisothiazol-5-yl]-1-methyl-6-(trifluoromethyl)uracil]
[1]; rate 0.0320 kg/ha
  ABUTH herbicidal rating: 9.0
[1]; rate 0.0620 kg/ha
  ABUTH herbicidal rating: 9.0
[2]; rate 0.0320 kg/ha
  AMBEL herbicidal rating: 9.0
[2]; rate 0.0620 kg/ha
  AMBEL herbicidal rating: 9.0
[3]; rate 0.0320 kg/ha
  CASOB herbicidal rating: 9.0
[3]; rate 0.0620 kg/ha
  CASOB herbicidal rating: 9.0
[4]; rate 0.0320 kg/ha
  CHEAL herbicidal rating: 9.0
[4]; rate 0.0620 kg/ha
  CHEAL herbicidal rating: 9.0
[5]; rate 0.0320 kg/ha
  GALAP herbicidal rating: 9.0
[5]; rate 0.0620 kg/ha
  GALAP herbicidal rating: 9.0
[6]; rate 0.0320 kg/ha
  IPOHE herbicidal rating: 9.0
[6]; rate 0.0620 kg/ha
  IPOHE herbicidal rating: 9.0
[7]; rate 0.0320 kg/ha
  ECHCG herbicidal rating: 6.0
[7]; rate 0.0620 kg/ha
  ECHCG herbicidal rating: 7.0
[8]; rate 0.0320 kg/ha
  SETVI herbicidal rating: 7.0
[8]; rate 0.0620 kg/ha
  SETVI herbicidal rating: 9.0
[9]; rate 0.0320 kg/ha
  GLXMAW herbicidal rating: 6.5
[9]; rate 0.0620 kg/ha
  GLXMAW herbicidal rating: 9.0
[10]; rate 0.0320 kg/ha
  ORYSAT herbicidal rating: 5.0
[10]; rate 0.0620 kg/ha
  ORYSAT herbicidal rating: 6.0
[11]; rate 0.0320 kg/ha
  TRZAWR herbicidal rating: 5.0
[11]; rate 0.0620 kg/ha
  TRZAWR herbicidal rating: 6.0
[12]; rate 0.0320 kg/ha
  ZEAMX herbicidal rating: 5.5
[12]; rate 0.0620 kg/ha
  ZEAMX herbicidal rating: 6.0
[13]
  Preemergence herbicidal rating ABUTH: 9.0
[14]
  Preemergence herbicidal rating AMBEL: 9.0
[15]
  Preemergence herbicidal rating CASOB: 9.0
[16]
  Preemergence herbicidal rating CHEAL: 9.0
[17]
  Preemergence herbicidal rating GALAP: 9.0
[18]
  Preemergence herbicidal rating IPOHE: 9.0
[19]
  Preemergence herbicidal rating ECHCG: 9.0
[20]
  Preemergence herbicidal rating SETVI: 9.0
[21]
  Preemergence herbicidal rating GLXMAW: 9.0
[22]
  Preemergence herbicidal rating ORYSAT: 8.0
[23]
  Preemergence herbicidal rating TRZAWR: 7.0
[24]
  Preemergence herbicidal rating ZEAMX: 8.0
[25]; rate 0.0080 kg/ha
  herbicidal rating, ECHORC: 9.0
[25]; rate 0.0320 kg/ha
  herbicidal rating, ECHORC: 9.0
[25]; rate 0.1250 kg/ha
  herbicidal rating, ECHORC: 9.0
[26]; rate 0.0080 kg/ha
  herbicidal rating, CYPIR: 4.0
[26]; rate 0.0320 kg/ha
  herbicidal rating, CYPIR: 9.0
[26]; rate 0.1250 kg/ha
  herbicidal rating, CYPIR: 9.0
[27]; rate 0.0080 kg/ha
  herbicidal rating, MOOVA: 3.0
[27]; rate 0.0320 kg/ha
  herbicidal rating, MOOVA: 9.0
[27]; rate 0.1250 kg/ha
  herbicidal rating, MOOVA: 9.0
[28]; rate 0.0080 kg/ha
  herbicidal rating, SAGPY: 3.0
[28]; rate 0.0320 kg/ha
  herbicidal rating, SAGPY: 7.0
[28]; rate 0.1250 kg/ha
  herbicidal rating, SAGPY: 9.0
[29]; rate 0.0080 kg/ha
  herbicidal rating, ORYSAT (rice tolerance): 7.0
[29]; rate 0.0320 kg/ha
  herbicidal rating, ORYSAT (rice tolerance): 9.0
[29]; rate 0.1250 kg/ha
  herbicidal rating, ORYSAT (rice tolerance): 9.0

Source: patent US6706663B2, “Herbicidal 3-heterocyclic substituted benzisothiazole and benzisoxazole compounds” (Wyeth, priority 2000, dated 2004)
